# Measurements: patent publication US8158577B2, “Modulation of cartilage homeostasis by active domains of cell binding extracellular matrix molecules” (priority 2004, dated 2012)
# How the values were obtained:
# Assay type in all cases: cell-based, human
# K105 cells [1] = assay: Adhesion of K105 cells to the coated cell binding peptides (FIG. 8)
# Procedure: Tissue culture dishes were coated with 33 μg/ml (20 µM) peptide solution. The cells (50,000/well) were suspended in PBS containing 0.1% BSA, 25 U/ml collagenase and added to the wells in the presence or absence of synthetic peptide (250 μg/ml) and allowed to adhere for 1 hour at 37° C. Nonadherent cells were removed by washing. Spreading was visualized by light microscopy.
# K105 cells [2] = assay: Adhesion of K105 cells to chondroadherin in the presence of synthetic peptide (FIG. 3, 5A-5B, 13); settings: peptide 250 μg/ml
# Procedure: Human cells (K9) originating from a human chondrosarcoma were a kind gift from Drs. Sven Inerot and Anders Lindahl, The Salgrenska University Hospital Gothenburg, Sweden. The K9 cells were cultured in Dulbeccos Modified Eagle Medium: Nutrient Mixture F12 (DMEM/F12 1:1) with GLUTAMAX I, supplemented with 10% fetal calf serum, 25 μg/ml ascorbic acid, 50 IU of penicillin and 50 μg/ml streptomycin (Life Technologies, Inc.). A different human cells line (K105) originating from a human chondrosarcoma was a kind gift from Dr. Sven Inerot, The Salgrenska University Hospital, Gothenburg, Sweden. The K105 cells were cultured in a mix of 40% Dulbeccos Modified Eagle Medium, 40% Minimum Essential Media (MEM) alpha Medium, 10% Nutrient Mixture F1 supplemented with 100 nM hydrocortisone, 100 ng/ml insulin, 10% fetal calf serum, 25 μg/ml ascorbic acid, 50 IU of penicillin and 50 μg/ml streptomycin (Life Technologies, Inc.). To harvest cells, culture dishes were rinsed three times with Ca^2+/Mg^2+-free PBS and the cells were incubated with 0.5% trypsin and 1 mM EDTA for 5 min. Detached cells were suspended in PBS containing 1 mg/ml trypsin inhibitor (Sigma) and then washed in PBS. To remove membrane-bound collagens the cells were treated with collagenase 100 U/ml (CLSPA; Worthington Biochemical Corp., Lakewood, N.J.) in PBS, 30 min. 37° C. and then washed in PBS.
# (§1) Tissue culture 48-wells dishes (Nunclon, Nunc, Denmark) were coated overnight with 5 μg/ml chondroadherin in 4M Guanidine-HCl, 50 mM sodium acetate, pH 5.8, or for native protein in PBS. Alternatively coating was with 5 μg/ml collagen type II in PBS followed by after-coating with 0.5% BSA in PBS for 3 hours. Collagen type II was isolated from bovine nasal cartilage by pepsin digestion (11). Bacterially expressed chondroadherin was isolated as described above. Recombinant chondroadherin expressed in EBNA cell was cloned and purified as described elsewhere (8).
# (§2) To test cell binding, the chondrosarcoma cells or bovine chondrocytes were suspended in PBS containing 0.1% BSA, 25 U/ml collagenase and added to the wells (50,000/well), in the absence or presence of various peptide pools or the synthetic peptides (200, 100, 50, 25, 12.5 μg/ml). Non-adherent cells were removed after 1 hour and adhesion was determined by measuring lysosomal N-acetylglucosaminidase (12). Adhesion and spreading was visualized by light microscopy. In the time studies, k105 cells were allowed to adhere for 30 minutes, unbound cells were removed and medium without serum supplemented with or without peptides (250 μg/ml), β1 integrin antibody (clone P4C10, Gibco BRL), EDTA (5 mM) was added. Cell morphology was visualized by light microscopy after 1, 3 and 20 hours.
# Study design: Tissue culture dishes (48-wells) were coated with 5 μg/ml chondroadherin expressed in E. coli and blocked for non-specific binding with BSA. […] were suspended in PBS containing 0.1% BSA, 25 U/ml collagenase and added to the wells (50,000/well) in the presence of synthetic peptide to be tested and allowed to adhere for 1 hour at 37° C. Nonadherent cells were removed by washing, and adhesion was determined by analyzing lysosomal hexosaminidase.
# A 12-mer peptide (1947.01) plus an N-terminal cysteine (CQLRGLRRWLEAK) (SEQ ID NO. 3) representing the candidate sequence identified by mass spectrometry were synthesized and its ability to inhibit cell adhesion was determined. Tissue culture dishes were coated with 5 μg/ml chondroadherin expressed in E. coli and blocked for non-specific binding with BSA. The cells were suspended in PBS containing 0.1% BSA, 25 U/ml collagenase and added to the wells (50,000/well) in the presence of synthetic peptide (200, 100, 50, 25, 12.5 μg/ml) and allowed to adhere for 1 hour at 37° C. Nonadherent cells were removed by washing, and adhesion was determined by analyzing lysosomal hexosaminidase. […]
# K105 cells [3] = assay: Adhesion of K105 cells to collagen type II in the presence of synthetic peptide (FIG. 5C-5D); settings: peptide 250 μg/ml, 1 hour at 37° C.
# Procedure: as §1
# To test cell binding, the chondrosarcoma cells or bovine chondrocytes were suspended in PBS containing 0.1% BSA, 25 U/ml collagenase and added to the wells (50,000/well), in the absence or presence of various peptide pools or the synthetic peptides (200, 100, 50, 25, 12.5 μg/ml). Non-adherent cells were removed after 1 hour and adhesion was determined by measuring lysosomal N-acetylglucosaminidase (12). Adhesion and spreading was visualized by light microscopy. […]
# Tissue culture dishes were coated with 5 μg/ml chondroadherin expressed in E. coli or collagen type II and blocked for non-specific binding with BSA. […] Spreading was visualized by light microscopy, and adhesion was determined by analyzing lysosomal hexosaminidase. Adhesion is expressed as number of cells where the data represent the average of two wells. […]
# K105 cells [4] = assay: Effect on K105 cells already adherent to chondroadherin, light microscopy time study (FIG. 7, 9, 10); settings: peptide 250 μg/ml added after 30 min adhesion; light microscopy after 1, 3 and 20 hours
# Procedure: as §2
# (§3) Tissue culture dishes were coated with 5 μg/ml chondroadherin expressed in E. coli and blocked for non-specific binding with BSA. The k105 cells were suspended in PBS containing 0.1% BSA, and added to the wells (50,000/well). Nonadherent cells were removed after 30 min by washing, plain medium without serum with or without peptides (250 μg/ml) was added and bound cells were visualized by light microscopy after 1, 3 and 20 hours.
# as §3, with “The” for “The k105”, “hours. […] The activity for integrin binding is located in the C-terminal eight residues of the sequence involving the WLEAK (SEQ ID No. 1) sequence.” for “hours.”
# as §3, with “washing, peptide, anti β1 antibody, 5 mM EDTA or” for “washing,”, “serum” for “serum with or without peptides (250 μg/ml)”, “1 and” for “1,”, “3” for “3 and 20”
substance,measurement,setting,value
H-CKFPTKRSKKAGRH-OH [SEQ ID No. 7],adhesion and shape of k105 cells plated on the peptide,"K105 cells [1]; dishes coated with 33 μg/ml peptide, 1 hour at 37° C.",adhere and spread
same,inhibition of k105 adhesion to the coated peptide by the same peptide in solution,K105 cells [1]; peptide in solution 250 μg/ml,unable to inhibit adhesion
same,k105 cell adhesion to chondroadherin in the presence of peptide,K105 cells [2]; 1 hour at 37° C.,increased
same,k105 cell spreading on chondroadherin in the presence of peptide,"K105 cells [2]; 1 hour, light microscopy",increased
same,k105 cell adhesion to collagen type II in the presence of peptide,K105 cells [3],not significantly affected
same,"spreading, migration and aggregation of k105 cells adherent to chondroadherin",K105 cells [4],spreading and migration increased
